Active and inactive are the calls of the source. No cut-off for these calls is given here.
Columns and labels:
[1] = Binding affinity to biotin labelled 5'-CGCGCGCGTTTTCGCGCGCG-3' hairpin dsDNA (unknown origin) immobilized on biosensor chip by surface plasmon resonance analysis; design: species or system Homo sapiens
Homo sapiens [2] = species on record: Homo sapiens; experiment: Selectivity ratio of Kd for biotin labelled 5'-CATATATATCCCCATATATATG-3' hairpin dsDNA (unknown origin) to Kd for biotin labelled 5'-CGAATTCGTCTCCGAATTCG-3' hairpin dsDNA (unknown origin)
[3] = Binding affinity to biotin labelled 5'-CGAATTCGTCTCCGAATTCG-3' hairpin dsDNA (unknown origin) immobilized on biosensor chip by surface plasmon resonance analysis; design: species or system Homo sapiens
Homo sapiens [4] = species on record: Homo sapiens; experiment: Ratio of primary binding constant to secondary binding constant for biotin labelled 5'-CGAATTCGTCTCCGAATTCG-3' hairpin dsDNA (unknown origin) immobilized on biosensor chip by surface plasmon resonance analysis
[5] = Binding affinity to biotin labelled 5'-CATATATATCCCCATATATATG-3' hairpin dsDNA (unknown origin) immobilized on biosensor chip by surface plasmon resonance analysis; design: species or system Homo sapiens
Homo sapiens [6] = species on record: Homo sapiens; experiment: Ratio of primary binding constant to secondary binding constant for biotin labelled 5'-CATATATATCCCCATATATATG-3' hairpin dsDNA (unknown origin) immobilized on biosensor chip by surface plasmon resonance analysis
Homo sapiens [7] = species on record: Homo sapiens; experiment: Selectivity ratio of Kd for biotin labelled 5'-CGCGCGCGTTTTCGCGCGCG-3' hairpin dsDNA (unknown origin) to Kd for biotin labelled 5'-CATATATATCCCCATATATATG-3' hairpin dsDNA (unknown origin)
[8] = Binding affinity to fish sperm DNA assessed as hypochromicity change at 30 uM by UV-vis spectrophotometry relative to control; conditions: Hyperoartia
[9] = Binding affinity to biotin labelled 5'-CATATATATCCCCATATATATG-3' hairpin dsDNA (unknown origin) immobilized on streptavidin-derivatized gold chip incubated for 5 mins followed by dissociation period of 5 mins by surface plasmon resonance analysis; design: species or system Homo sapiens
Homo sapiens [10] = species on record: Homo sapiens; experiment: Binding affinity to CGAATTCG dsDNA (unknown origin) assessed as spectral changes at 2.5 uM by UV-vis spectrophotometry
Homo sapiens [11] = species on record: Homo sapiens; experiment: Binding affinity to CATATATAT dsDNA (unknown origin) assessed as spectral changes at 2.5 uM by UV-vis spectrophotometry
Homo sapiens [12] = species on record: Homo sapiens; experiment: Binding affinity to CGCGCGCG dsDNA (unknown origin) assessed as spectral changes at 2.5 uM by UV-vis spectrophotometry
Homo sapiens [13] = species on record: Homo sapiens; experiment: Binding affinity to GAATAATCGCGATTATTC dsDNA (39 bp) (unknown origin) assessed as slow binding constant
Homo sapiens [14] = species on record: Homo sapiens; experiment: Binding affinity to CGAATTCG dsDNA (unknown origin) assessed as isosbestic point at 2.5 uM by UV-vis spectrophotometry
Homo sapiens [15] = species on record: Homo sapiens; experiment: Binding affinity to CATATATAT dsDNA (unknown origin) assessed as isosbestic point at 2.5 uM by UV-vis spectrophotometry
Homo sapiens [16] = species on record: Homo sapiens; experiment: Binding affinity to CGCGCGCG dsDNA (unknown origin) assessed as isosbestic point at 2.5 uM by UV-vis spectrophotometry
Homo sapiens [17] = species on record: Homo sapiens; experiment: Binding affinity to GAATAATCGCGATTATTC dsDNA (39 bp) (unknown origin) assessed as long lasting constant

Kd ([1]; read-out: Kd)	Kd [3]	Ratio (Homo sapiens [4])	Kd [5]	Ratio (Homo sapiens [6])	Activity [8]	Structure (SMILES)	other results
> 10 µM	0.166 µM	100	0.307 µM	100	–	O=C(Nc1ccc(NC2=NCCN2)cc1)c1ccc(NC2=NCCN2)cc1	Selectivity ratio (Homo sapiens [2]): 1.5
159 µM	11.6 µM	100	8.06 µM	100	–	O=C(Nc1ccc(NC2=NCCN2)cc1)Nc1ccc(NC2=NCCN2)cc1	Selectivity ratio (Homo sapiens [7]): 10
> 10 µM	–	–	–	–	–	CC(C)/N=C(\N)Nc1ccc(NC(=O)c2ccc(N/C(N)=N/C(C)C)cc2)cc1	–
> 10 µM	–	–	–	–	–	N=C(N)Nc1ccc(NC(=O)c2ccc(NC(=N)N)cc2)cc1	–
> 10 µM	–	–	–	–	–	CC/N=C(\N)Nc1ccc(NC(=O)c2ccc(N/C(N)=N/CC)cc2)cc1	–
> 29 µM	> 29 µM	100	> 29 µM	100	9%	CCO[N+]1=C(Nc2ccc(CCc3ccc(NC4=[N+](OCC)CCN4)cc3)cc2)NCC1	–
–	2.7 µM	100	–	100	–	c1cc(NC2=NCCN2)cc(Nc2ccc(NC3=NCCN3)cc2)c1	Kd [1]: Not Active; Kd [9]: 2.17 µM
19.6 µM	2.78 µM	5	4.35 µM	5	–	c1cc(NC2=NCCN2)ccc1CCc1ccc(NC2=NCCN2)cc1	–
18.5 µM	0.077 µM	100	0.273 µM	100	9%	O=C(Nc1ccc(NC2=[N+]([O-])CCN2)cc1)c1ccc(NC2=[N+]([O-])CCN2)cc1	Selectivity ratio (Homo sapiens [2]): 3.5; Activity (Homo sapiens [10]): Active; Activity (Homo sapiens [11]): Active; Activity (Homo sapiens [12]): Active
76.9 µM	0.87 µM	30	4 µM	30	9%	[O-][N+]1=C(Nc2ccc(CCc3ccc(NC4=[N+]([O-])CCN4)cc3)cc2)NCC1	–
–	> 29 µM	–	> 29 µM	–	–	CC/N=C(\N)Nc1ccc(NC(=O)Nc2ccc(N/C(N)=N/CC)cc2)cc1	Kd [1]: Not Active
> 10 µM	0.256 µM	100	0.351 µM	100	9%	CO[N+]1=C(Nc2ccc(NC(=O)c3ccc(NC4=[N+](OC)CCN4)cc3)cc2)NCC1	Selectivity ratio (Homo sapiens [2]): 1.5
66.7 µM	0.568 µM	100	1.79 µM	100	–	[O-][N+]1=C(Nc2ccc(Nc3cccc(NC4=[N+]([O-])CCN4)c3)cc2)NCC1	K (Homo sapiens [13]): 38 M⁻¹ s⁻¹; Activity (Homo sapiens [14]): 325 nm; Activity (Homo sapiens [15]): 335 nm; Activity (Homo sapiens [16]): inactive; K (Homo sapiens [17]): 0.00265 s⁻¹

Source: ChEMBL document CHEMBL3774306, “Bisimidazoline arylamides binding to the DNA minor groove: N1-hydroxylation enhances binding affinity and selectivity to AATT sites” (Medchemcomm, 2015)
